Values after ≈ are worked out from the molar mass of the structure shown. Active and inactive are the calls of the source. No cut-off for these calls is given here.
What was measured:
Acinetobacter baumannii [1] = assay: Antibacterial activity against Acinetobacter baumannii assessed as reduction in GSH activity by Ellman's method; format: functional, organism-based; conditions: DDE = dose-dependent effect
Staphylococcus aureus [2] = assay: Antibacterial activity against Staphylococcus aureus assessed as inhibition of bacterial growth; format: functional
Calf thymus DNA [3] = assay: Binding affinity to calf thymus DNA assessed as reduction in fluorescence intensity of acridine orange-DNA complex formation by measuring […] by competitive binding assay; format: nucleic-acid assay; conditions: Bos taurus; DDE = dose-dependent effect
Staphylococcus aureus [4] = assay: Antibacterial activity against methicillin resistant Staphylococcus aureus N315 assessed as inhibition of bacterial growth; format: functional
Enterococcus faecalis = assay: Antibacterial activity against Enterococcus faecalis assessed as inhibition of bacterial growth; format: functional
Staphylococcus aureus [5] = assay: Antibacterial activity against Staphylococcus aureus ATCC 25923 assessed as inhibition of bacterial growth; format: functional
Staphylococcus aureus [6] = assay: Antibacterial activity against Staphylococcus aureus ATCC 29213 assessed as inhibition of bacterial growth; format: functional
Klebsiella pneumoniae = assay: Antibacterial activity against Klebsiella pneumoniae assessed as inhibition of bacterial growth; format: functional
Escherichia coli [7] = assay: Antibacterial activity against Escherichia coli assessed as inhibition of bacterial growth; format: functional
Escherichia coli [8] = assay: Antibacterial activity against Escherichia coli ATCC 25922 assessed as inhibition of bacterial growth; format: functional
Pseudomonas aeruginosa [9] = assay: Antibacterial activity against Pseudomonas aeruginosa assessed as inhibition of bacterial growth; format: functional
Pseudomonas aeruginosa [10] = assay: Antibacterial activity against Pseudomonas aeruginosa ATCC 27853 assessed as inhibition of bacterial growth; format: functional
Acinetobacter baumannii [11] = assay: Antibacterial activity against Acinetobacter baumannii assessed as inhibition of bacterial growth; format: functional
[12] = Cytotoxicity against human endothelial cells assessed as cell viability at 10 ug/ml by CCK8 method relative to control; format: toxicity, cell-based; conditions: at 10 µg/mL, read-out: Activity
[13] = Cytotoxicity against human liver cancer cells assessed as cell viability at 10 ug/ml by CCK8 method relative to control; format: functional; conditions: read-out: Activity
[14] = Hemolytic activity in human RBC assessed as hemolysis rate at 64 times MIC relative to control; format: toxicity, cell-based, Erythrocyte; conditions: red blood cells (erythrocytes), read-out: Activity
Acinetobacter baumannii [15] = assay: Anti- biofilm activity against Acinetobacter baumannii assessed as decrease in biofilm viability at 2 ug/ml by resazurin dye based assay relative to control; format: functional; conditions: dose 2 µg/ml
Cell membrane [16] = assay: Induction of cell membrane depolarization in Acinetobacter baumannii assessed as increase in fluorescence intensity at MIC by DiSC35 dye-based fluorescence assay; format: subcellular; conditions: time <= 60.0 min, TDE = time-dependent effect
Cell membrane [17] = assay: Induction of outer membrane permeabilization in Acinetobacter baumannii assessed as increase in fluorescence intensity at MIC by NPN-dye based fluorescence assay; format: subcellular; conditions: time <= 120.0 min
Cell membrane [18] = assay: Induction of inner membrane permeabilization in Acinetobacter baumannii assessed as increase in fluorescence intensity by propidium iodide staining based fluorescence analysis; format: subcellular; conditions: DDE = dose-dependent effect
Cell membrane [19] = assay: Induction of inner membrane permeabilization in Acinetobacter baumannii assessed as increase in red fluorescence intensity by fluorescence microscopic analysis
Cell membrane [20] = assay: Induction of cell membrane damage in Acinetobacter baumannii assessed as increase in protein leakage; format: subcellular
Cell membrane [21] = assay: Induction of cell membrane damage in Acinetobacter baumannii assessed as increase in nucleic acid leakage by measuring fold increase in absorbance at 8 times MIC by spectrophotometry; format: subcellular
Cell membrane [22] = assay: Induction of cell membrane destruction in Acinetobacter baumannii assessed as reduction in metabolic activity; format: subcellular; conditions: DDE = dose-dependent effect
Acinetobacter baumannii [23] = assay: Induction of ROS production in Acinetobacter baumannii by DCFH-DA staining based fluorescence analysis; format: functional; conditions: DDE = dose-dependent effect
Acinetobacter baumannii [24] = assay: Induction of ROS production in Acinetobacter baumannii assessed as fold change at 16 times MIC by DCFH-DA staining based fluorescence analysis; format: functional
Acinetobacter baumannii [25] = assay: Antibacterial activity against Acinetobacter baumannii assessed fold increase in malondialdehyde production measured at upto 16 times MIC; format: functional
Calf thymus DNA [26] = assay: Binding affinity to calf thymus DNA assessed as hypochromic shift by UV-vis spectrophotometric analysis; format: nucleic-acid assay; conditions: Bos taurus

| Structure (SMILES) | MIC (Staphylococcus aureus [2]) [µg/mL] | MIC (Staphylococcus aureus [4]) [µg/mL] | MIC (Enterococcus faecalis) [µg/mL] | MIC (Staphylococcus aureus [5]) [µg/mL] | MIC (Staphylococcus aureus [6]) [µg/mL] | MIC (Klebsiella pneumoniae) [µg/mL] | MIC (Escherichia coli [7]) [µg/mL] | MIC (Escherichia coli [8]) [µg/mL] | MIC (Pseudomonas aeruginosa [9]) [µg/mL] | MIC (Pseudomonas aeruginosa [10]) [µg/mL] | MIC (Acinetobacter baumannii [11]) [µg/mL] | further results |
| --- | --- | --- | --- | --- | --- | --- | --- | --- | --- | --- | --- | --- |
| Cc1cc(=O)oc2cc(/N=C3/S/C(=C\c4c[nH]c5ccccc45)C(=O)N3CCO)ccc12 | 2 (≈ 4.49 µM) | 0.25 (≈ 0.561 µM) | 0.25 (≈ 0.561 µM) | 0.25 (≈ 0.561 µM) | 0.25 (≈ 0.561 µM) | 0.5 (≈ 1.12 µM) | 0.25 (≈ 0.561 µM) | 1 (≈ 2.24 µM) | 256 (≈ 575 µM) | 32 (≈ 71.8 µM) | 0.25 (≈ 0.561 µM) | Activity (Acinetobacter baumannii [1]): Dde; Activity (Calf thymus DNA [3]): Dde; viability at 10 ug/ml [12]: 75%; viability at 10 µg/mL [13]: 47%; hemolysis at 64 times MIC [14]: < 5%; Activity (Acinetobacter baumannii [15]): 45%; Activity (Cell membrane [16]): Tde; Activity (Cell membrane [17]): Active; Activity (Cell membrane [18]): Dde; Activity (Cell membrane [19]): Active; Activity (Cell membrane [20]): Active; fold change (FC) (Cell membrane [21]): 3.8; Activity (Cell membrane [22]): Dde; Activity (Acinetobacter baumannii [23]): Dde; fold change (FC) (Acinetobacter baumannii [24]): 5.3; fold change (FC) (Acinetobacter baumannii [25]): 3; Activity (Calf thymus DNA [26]): Active |
| Cc1cc(=O)oc2cc(/N=C3/S/C(=C\c4ccc(C#N)cc4)C(=O)N3CCO)ccc12 | 1 (≈ 2.32 µM) | 2 (≈ 4.64 µM) | 4 (≈ 9.27 µM) | 8 (≈ 18.5 µM) | 128 (≈ 297 µM) | 128 (≈ 297 µM) | 256 (≈ 593 µM) | 256 (≈ 593 µM) | 128 (≈ 297 µM) | 256 (≈ 593 µM) | 0.5 (≈ 1.16 µM) | – |
| CCn1cc(/C=C2\S/C(=N/c3ccc4c(C)cc(=O)oc4c3)N(CCO)C2=O)c2ccccc21 | 128 (≈ 270 µM) | 128 (≈ 270 µM) | 128 (≈ 270 µM) | 64 (≈ 135 µM) | 128 (≈ 270 µM) | 64 (≈ 135 µM) | 64 (≈ 135 µM) | 128 (≈ 270 µM) | 64 (≈ 135 µM) | 32 (≈ 67.6 µM) | 64 (≈ 135 µM) | – |
| Cc1ccc(/C=C2\S/C(=N/c3ccc4c(C)cc(=O)oc4c3)N(CCO)C2=O)cc1 | 64 (≈ 152 µM) | 128 (≈ 304 µM) | 256 (≈ 609 µM) | 256 (≈ 609 µM) | 128 (≈ 304 µM) | 256 (≈ 609 µM) | 128 (≈ 304 µM) | 256 (≈ 609 µM) | 128 (≈ 304 µM) | 32 (≈ 76.1 µM) | 8 (≈ 19 µM) | – |

From ChEMBL document CHEMBL5131495, “Discovery of unique thiazolidinone-conjugated coumarins as novel broad spectrum antibacterial agents” (Eur J Med Chem, 2022)
